Key:
Format in all cases: cell-based, human
Bax [1] = assay: Western blot, Bax expression in HeLa cells; details: 24 h, 2.5, 5, and 10 μM
Description: (§1) HeLa cells were cultured in 60 mm Petri dishes at a density of 1.0 × 10^6 cells per dish and treated with 0.1% DMSO (vehicle), positive control chalcone (20 μM), and different concentrations of compound 3k (2.5, 5, and 10 μM), respectively. Following a 24 and 48 h incubation period, the cells were harvested via centrifugation and subsequently washed twice with PBS that had been chilled to 0 °C. Next, the cells were homogenized using RIPA lysis buffer (Solarbio, Beijing, China) and supplemented with 1% PMSF (MP Biomedicals, 0754-25G, CAS:329-98-6, Santa Ana, CA, USA) and 1% mixed phosphatase inhibitor (Solarbio, Beijing, China). […]
(§2) Subsequently, the protein concentrations were determined utilizing a BCA Protein Assay Kit (Solarbio, China). An equivalent quantity of the proteins (12 μg) was fractionated via 8–12% sodium dodecyl sulfate–polyacrylamide gel electrophoresis (SDS-PAGE) and transferred onto nitrocellulose membranes (Amersham Biosciences, Amersham, UK). […] The blots were subsequently visualized using enhanced chemiluminescence (Biosharp, Shanghai, China) and detected utilizing a PE 0723 imager (ProteinSimple, Silicon Valley, CA, USA). Each experiment was conducted in triplicate at minimum and analyzed employing Image J software (V1.8.0.112). β-actin(ab198991) rabbit mAb, goat anti-rabbit IgG (H + L) HRP—#S0001 (Affinity). […]

P-gp = assay: Western blot, P-gp expression in HeLa/DDP cells; details: 48 h, 0.25, 0.5, or 1 μM
HeLa/DDP cells = assay: Rhodamine 123 accumulation in HeLa/DDP cells; details: 48 h, 0.5 and 1 μM
Description: The experimental procedure involved the addition of 1 drop of PBS to each well of a 12-well plate, followed by the placement of cell crawlers and removal of excess PBS. HeLa/DDP cells were then plated at a concentration of 1.5 × 10^5 cells/mL, with 1 mL per well, and cultured for a duration of 24 h. A blank control group was established alongside a positive group treated with verapamil (6 μM) and an intervention group treated with 3k (0.25, 0.5, and 1 μM) for a duration of 48 h. The drug-containing culture medium was subsequently washed with PBS three times, with each wash lasting 5 min. The Rh123 master mix was diluted with culture medium to create a 20 μM Rh123 buffer, which was subsequently incubated at a temperature of 37 °C for a duration of 1 h. Following this incubation period, the Rh123 buffer was removed, and the cells were subjected to three consecutive washes with PBS, each lasting for 10 min. Subsequently, a fixation process was conducted using 4% paraformaldehyde at a volume of 1 mL per well, with a duration of 20 min. […] Subsequently, the side containing cells was affixed onto the liquid and made ready for measurement. The cells were then examined using a fluorescence microscope (Leica, Microsystems CMS GmbH, GER) equipped with a fluorescein filter, and the fluorescence intensity of each distinct group was assessed.

[2] = system: α-tubulin, β-tubulin in HeLa cells; assay: Immunofluorescence assay of microtubules, HeLa; details: 24 h, 3k 1, 2, and 4 μM, colchicine and paclitaxel 2.0 μM
Description: The cells were then fixed by adding 400 μL of 4% paraformaldehyde to each well and incubating for 30 min. 0.1% Triton was added at a volume of 400 μL per well and allowed to incubate for 10 min. Following this, goat serum (10%) was added at 400 μL per well and incubated for 40 min. Primary antibodies (α-tubulin, β-tubulin) were then incubated overnight at a temperature of 4 °C. Subsequently, secondary antibodies (α-mouse, β-rabbit) were incubated for 1.5 h. DAPI staining was performed at 400 μL per well for 5 min, followed by a wash with PBS. Cell climbing tablets were removed and inverted onto slides with sealer. Photographs were captured using a fluorescent inverted microscope.

Bax [3] = assay: Western blot, Bax expression in HeLa/DDP cells; details: 24 h, 5 and 10 μM
Description: as §1, §2

Bcl-2 = assay: Western blot, Bcl-2 expression in HeLa cells; details: 24 h, 5 and 10 μM
Description: as §1, §2

[4] = system: α-/β-tubulins in HeLa cells; assay: Western blot of polymerized and dissociated α-/β-tubulins, HeLa; details: 24 h, versus control
Description: HeLa cells were cultured in 60 mm Petri dishes at a density of 1.0 × 10^6 cells per dish and treated with 0.1% DMSO (vehicle), positive control chalcone (20 μM), and different concentrations of compound 3k (2.5, 5, and 10 μM), respectively. Following a 24 and 48 h incubation period, the cells were harvested via centrifugation and subsequently washed twice with PBS that had been chilled to 0 °C. Next, the cells were homogenized using RIPA lysis buffer (Solarbio, Beijing, China) and supplemented with 1% PMSF (MP Biomedicals, 0754-25G, CAS:329-98-6, Santa Ana, CA, USA) and 1% mixed phosphatase inhibitor (Solarbio, Beijing, China). The resulting lysates were then incubated on ice for 30 min, intermittently vortexed every 5 min, and subsequently centrifuged at 12,000 rpm for 20 min to collect the supernatants.
Subsequently, the protein concentrations were determined utilizing a BCA Protein Assay Kit (Solarbio, China). An equivalent quantity of the proteins (12 μg) was fractionated via 8–12% sodium dodecyl sulfate–polyacrylamide gel electrophoresis (SDS-PAGE) and transferred onto nitrocellulose membranes (Amersham Biosciences, Amersham, UK). Following this, the membranes were obstructed with 5% nonfat dried milk in TBS containing 1% Tween-20 for a duration of 2 h at ambient temperature and were subjected to overnight incubation with specific primary antibodies (CST, Boston, MA, USA) at 4 °C. Following three washes in TBST, the membranes were subjected to incubation with the suitable HRP-conjugated secondary antibodies at ambient temperature for a duration of 2 h. The blots were subsequently visualized using enhanced chemiluminescence (Biosharp, Shanghai, China) and detected utilizing a PE 0723 imager (ProteinSimple, Silicon Valley, CA, USA). Each experiment was conducted in triplicate at minimum and analyzed employing Image J software (V1.8.0.112). β-actin(ab198991) rabbit mAb, goat anti-rabbit IgG (H + L) HRP—#S0001 (Affinity). Bax (ab289364), Bcl-2 (ab218123), MDR1/ABCB1 (E1Y7B) rabbit mAb #13342 (CST).
Polymerized and free microtubule proteins were extracted using the methods described in references, respectively. Following drug intervention, the cells were subjected to two washes with preheated microtubule protein buffer MTSB at 37 °C. Subsequently, 70 μL of MTSB was added, and the cells were lysed for 10 min at 37 °C in a constant temperature chamber shielded from light. The cells were then scraped with a spatula and centrifuged at 14,000 r/min for 10 min at room temperature. The resulting supernatant, which represented the free state microtubule protein suspension, was subsequently removed. The remaining precipitate was treated with RIPA lysis solution, followed by lysis on ice for a duration of 30 min. Subsequently, centrifugation was performed at a temperature of 4 °C and a speed of 12,000 revolutions per minute for a duration of 20 min. The resulting supernatant was collected as a suspension of polymerized microtubule protein. The Western blotting procedure was the same as in Section 3.3.4. α-Tubulin (DM1A) Mouse mAb#3873 (CST), β-Tubulin (D2N5G) Rabbit mAb #15115 (CST), CoraLite488-conjugated Goat Anti-Mouse lgG(H+L) (Proteintech); CoraLite488-conjugated Goat Anti-Rabbit lgG(H+L) (Proteintech); β-actin(ab198991) rabbit mAb, Goat Anti-Mouse IgG H&L (HRP) (ab6789); Goat anti-Rabbit IgG (H+L) HRP—#S0001 (Affinity).

COc1ccc(/C=C(\C)C(=O)c2ccc(Cl)c(Cl)c2)cc1OC [Compound 3k, (E)-1-(3,4-Dichlorophenyl)-3-(3,4-dimethoxyphenyl)-2-methylprop-2-en-1-one]
Bax expression versus control group (Bax [1]): significant upregulation
expression of P-gp (P-gp): remained unchanged
average fluorescence intensity emitted by rhodamine 123 (HeLa/DDP cells): notably greater than that of the control group
microtubule immunofluorescence (α green, β red) [2]: green and red fluorescence of the encapsulated cells weakened
Bax expression versus control group (Bax [3]): significant increase
Bcl-2 expression versus control group (Bcl-2): downregulation
expression of dissociated state α and β microtubule proteins ([4]; 3k 4 μM, colchicine 2 μM, paclitaxel 2.0 μM): significant increase
expression of α and β microtubule proteins in the polymerized state ([4]; 3k 2 and 4 μM, colchicine and paclitaxel 2.0 μM): significant decrease

Source: PMC10707934, “Design and Synthesis of Novel α-Methylchalcone Derivatives, Anti-Cervical Cancer Activity, and Reversal of Drug Resistance in HeLa/DDP Cells” (Molecules, 2023)
